41 molecules from patent US9175282B2, “Cellobiose 2-epimerase, its preparation and uses” (HAYASHIBARA CO., LTD., priority 2009, dated 2015) can be followed below.

Assay [1] relates to recombinant cellobiose 2-epimerase. Put plainly: Substrate specificity of cellobiose 2-epimerase by TLC. Type of assay: biochemical, Caldicellulosiruptor saccharolyticus ATCC43494. Conditions: for Action: 2% (w/w) substrate, MOPS buffer pH 8.0, 500 units/g-substrate, 60° C., 24 hours, product spot on TLC; for Action of the enzyme on the saccharide: summary of Table 3. Also noted: key to Action: −: No product is detected; ±: Some products are slightly detected; +: Some products are detected; ++: Some products are clearly detected. On the procedure:
Substrate specificity of the enzyme was investigated by allowing the purified preparation of the recombinant cellobiose 2-epimerase, obtained by the method of Experiment 4-4, to act on various saccharides. Substrate solutions were prepared by dissolving D-glucose, D-xylose, D-allose, D-ribose, D-galactose, D-fructose, D-mannose, D-psicose, D-tagatose, L-sorbose, L-rhamnose, L-ribose, trehalose, kojibiose, nigerose, isomaltose, neotrehalose, gentiobiose, lactose, sucrose, maltulose, palatinose, maltose, maltotriose, maltotetraose, maltopentaose, maltohexaose, maltoheptaose, cellobiose, cellotriose, cellotetraose, selaginose, isomaltosyl-glucoside, isomaltotriose, panose, isopanose, erlose, maltitol, maltotriitol, methyl-α-glucoside, methyl-β-glucoside, D-glucosamine, D-galactosamine, D-glucuronic acid, N-acetyl-glucosamine, or N-acetyl-galactosamine into MOPS buffer (pH 8.0) to give a final concentration of 2% (w/w) of saccharide and 40 mM buffer.
Then, each of the resulting substrate solutions was further admixed with 500 units/g-substrate, on a dry solid basis, of the purified preparation of recombinant cellobiose 2-epimerase, obtained by the method in Experiment 4-4, and followed by the enzyme reaction at 60° C. for 24 hours. After stopping the reaction by heating the reaction mixture at 100° C. for 10 minutes, each reaction mixture was subjected to TLC analysis under the conditions in Experiment 1-2 to examine the saccharides in each mixture before and after the reaction. The substrate specificity of the enzyme was judged by investigating whether the spot of the reaction product except for the substrate is detected in the TLC chromatogram or not, and the degree of the strength of the visualized spot.

For assay [2] the test system is unchanged. Put plainly: Formation of isomerized saccharides from various saccharides, effect of the amount of enzyme. The assay is classed as biochemical, Caldicellulosiruptor saccharolyticus ATCC43494. On the procedure: Each of them was dissolved into 20 mM acetate buffer (pH 6.0), admixed with the purified preparation of the recombinant cellobiose 2-epimerase, obtained by the method in Experiment 4-4, and followed the enzyme reaction under the conditions of 10% (w/v) substrate concentration, 60° C. for 72 hours. The amount of enzyme was set to 130 or 500 units/g-substrate when monosaccharide was used as the substrate, and to 1 or 130 units/g-substrate when disaccharide or trisaccharide was used as the substrate. Each reaction mixture was heated at 100° C. for 10 minutes to stop the reaction and subjected to HPLC analysis to determine the contents of isomerized saccharide, on a dry solid basis. The contents of epilactose and lactulose in the reaction mixture obtained using lactose as substrate were determined by GC analysis described in Experiment 1-2.

Setting [3] is: 1 unit/g-substrate, 10% (w/v) substrate, pH 6.0, 60° C., 72 hours.
The mark [4] stands for this setting: 130 units/g-substrate, 10% (w/v) substrate, pH 6.0, 60° C., 72 hours.
The mark [5] stands for this setting: 500 units/g-substrate, 10% (w/v) substrate, pH 6.0, 60° C., 72 hours.

With `O=C[C@H](O)[C@@H](O)[C@H](O[C@@H]1O[C@H](CO)[C@@H](O)[C@H](O)[C@H]1O)[C@H](O)CO` [Cellobiose], in assay [1], the Action result was “++” and the “Action of the enzyme on the saccharide” value is listed as “relatively strong specificity”. For the same molecule, in assay [2] (setting [3]), the “Content of isomerized saccharide in the reaction mixture (%): Cellobiulose” value was found to be 1.7% and the “Content of isomerized saccharide in the reaction mixture (%): Epicellobiose” value stood at 27.8%. For the same molecule, in assay [2] (setting [4]), the “Content of isomerized saccharide in the reaction mixture (%): Cellobiulose” value was 53.2% and the “Content of isomerized saccharide in the reaction mixture (%): Epicellobiose” value was 13.4%. Further, in assay [2] (summary of Table 5), the “Action of the enzyme on the substrate” value was “relatively specifically acted”.
In the case of `OC[C@H]1O[C@@H](O[C@H]2[C@H](O)[C@@H](O)[C@H](O[C@H]3[C@H](O)[C@@H](O)[C@H](O[C@H]4[C@H](O)[C@@H](O)C(O)O[C@@H]4CO)O[C@@H]3CO)O[C@@H]2CO)[C@H](O)[C@@H](O)[C@@H]1O` (stereo partly shown) [Cellotetraose], in assay [1], the Action result is “++” and the “Action of the enzyme on the saccharide” value is given as “relatively strong specificity”.
The like results for `OC[C@H]1O[C@@H](O[C@H]2[C@H](O)[C@@H](O)[C@H](O[C@H]3[C@H](O)[C@@H](O)C(O)O[C@@H]3CO)O[C@@H]2CO)[C@H](O)[C@@H](O)[C@@H]1O` (stereo partly shown) [Cellotriose] were, in that order, “++” and “relatively strong specificity”.
As for `O=C[C@H](O)[C@H](O)[C@H](O)[C@H](O)CO` [D-Allose], the Action result in assay [1] is recorded as “−”.
As to `O=C(CO)[C@@H](O)[C@H](O)[C@H](O)CO` [D-Fructose], in assay [1], the Action result is on record as “±” and the “Action of the enzyme on the saccharide” value was “slightly acted on”. For the same molecule, in assay [2] (setting [4]), the “Content of isomerized saccharide in the reaction mixture (%): D-Glucose” value is listed as 2.2% and the “Content of isomerized saccharide in the reaction mixture (%): D-Mannose” value amounted to 2.2%.
With `N[C@H]1C(O)O[C@H](CO)[C@H](O)[C@@H]1O` (stereo partly drawn) [D-Galactosamine], the Action result in assay [1] is “−”.
The same measure, in the same setting: with `N[C@H]1C(O)O[C@H](CO)[C@@H](O)[C@@H]1O` (stereo partly drawn) [D-Glucosamine] the entry was “−”; with `O=C[C@H](O)[C@@H](O)[C@H](O)[C@H](O)C(=O)O` [D-Glucuronic acid], “−”.
As to `O=C(CO)[C@H](O)[C@H](O)[C@H](O)CO` [D-Psicose], in assay [1], the Action entry is recorded as “−”.
Still for that read-out and setting: then `O=C[C@H](O)[C@H](O)[C@H](O)CO` [D-Ribose], with “−”.
Turning to `O=C(CO)[C@@H](O)[C@@H](O)[C@H](O)CO` [D-Tagatose], in assay [1], the Action result is reported as “±” and the “Action of the enzyme on the saccharide” value was “slightly acted on”. In assay [2] (setting [5]), the “Content of isomerized saccharide in the reaction mixture (%): D-Galactose” value stood at 4.7% and the “Content of isomerized saccharide in the reaction mixture (%): D-Talose” value came to 5.2%.
In the case of `O=C[C@@H](O)[C@@H](O)[C@@H](O)[C@H](O)CO` [D-Talose], in assay [2] (setting [5]), the “Content of isomerized saccharide in the reaction mixture (%): D-Galactose” value stood at 27.2% and the “Content of isomerized saccharide in the reaction mixture (%): D-Tagatose” value worked out at 17.9%.
With `O=C[C@H](O)[C@@H](O)[C@H](O)CO` [D-Xylose], the Action result in assay [1] is “−”.
`OC[C@H]1O[C@@](CO)(O[C@H]2O[C@H](CO)[C@@H](O[C@H]3O[C@H](CO)[C@@H](O)[C@H](O)[C@H]3O)[C@H](O)[C@H]2O)[C@@H](O)[C@@H]1O` [Erlose]: the Action entry in assay [1] is listed as “−”.
Regarding `OC[C@H]1O[C@H](OC[C@H]2O[C@H](O)[C@H](O)[C@@H](O)[C@@H]2O)[C@H](O)[C@@H](O)[C@H]1O` [Gentibiose], in assay [1], the Action result is recorded as “−”.
`OC[C@H]1O[C@H](OC[C@H]2OC(O)[C@H](O)[C@@H](O)[C@@H]2O)[C@H](O)[C@@H](O)[C@@H]1O` (stereo partly shown) [Isomaltose]: in assay [1], the Action entry is listed as “−”.
Same read-out and setting: then `OC[C@H]1O[C@H](OC[C@H]2O[C@H](OC[C@H]3OC(O)[C@H](O)[C@@H](O)[C@@H]3O)[C@H](O)[C@@H](O)[C@@H]2O)[C@H](O)[C@@H](O)[C@@H]1O` (stereo partly shown) [Isomaltotriose], with “−”; and `OC[C@H]1O[C@H](O[C@H]2[C@H](O)[C@@H](O)[C@@H](OC[C@H]3OC(O)[C@H](O)[C@@H](O)[C@@H]3O)O[C@@H]2CO)[C@H](O)[C@@H](O)[C@@H]1O` (stereo partly shown) [Isopanose], with “−”.
`OC[C@H]1O[C@H](O[C@H]2C(O)O[C@H](CO)[C@@H](O)[C@@H]2O)[C@H](O)[C@@H](O)[C@@H]1O` (stereo partly shown) [Kojibiose]: in assay [1], the Action entry is given as “−”.
On the same count and under the same terms, then `C[C@H](O)[C@H](O)[C@@H](O)[C@@H](O)C=O` [L-Rhamnose], with “−”; and `O=C[C@@H](O)[C@@H](O)[C@@H](O)CO` [L-Ribose], with “−”.
On the same count and under the same terms, with `O=C(CO)[C@@H](O)[C@H](O)[C@@H](O)CO` [L-Sorbose] the entry was “−”; with `OC[C@@H](O)[C@@H](O[C@H]1O[C@H](CO)[C@@H](O)[C@H](O)[C@H]1O)[C@H](O)[C@@H](O)CO` [Maltitol], “−”.
For the molecule `OC[C@H]1O[C@H](O[C@H]2[C@H](O)[C@@H](O)[C@@H](O[C@H]3[C@H](O)[C@@H](O)[C@@H](O[C@H]4[C@H](O)[C@@H](O)C(O)O[C@@H]4CO)O[C@@H]3CO)O[C@@H]2CO)[C@H](O)[C@@H](O)[C@@H]1O` (stereo partly shown) [Maltotetraose], in assay [1], the Action result is on record as “±” and the “Action of the enzyme on the saccharide” value is listed as “slightly acted on”.
As to `OC[C@@H](O)[C@@H](O[C@H]1O[C@H](CO)[C@@H](O[C@H]2O[C@H](CO)[C@@H](O)[C@H](O)[C@H]2O)[C@H](O)[C@H]1O)[C@H](O)[C@@H](O)CO` [Maltotriitol], in assay [1], the Action entry is “−”.
Still for that read-out and setting: then `CO[C@H]1O[C@H](CO)[C@@H](O)[C@H](O)[C@H]1O` [Methyl-α-glucoside], with “−”; and `CO[C@@H]1O[C@H](CO)[C@@H](O)[C@H](O)[C@H]1O` [Methyl-β-glucoside], with “−”; and `CC(=O)N[C@H]1C(O)O[C@H](CO)[C@H](O)[C@@H]1O` (stereo partly shown) [N-Acetyl-galactosamine], with “−”.
Same read-out and setting: then `CC(=O)N[C@H]1C(O)O[C@H](CO)[C@@H](O)[C@@H]1O` (stereo partly shown) [N-Acetyl-glucosamine], with “−”; and `OC[C@H]1O[C@@H](O[C@H]2O[C@H](CO)[C@@H](O)[C@H](O)[C@H]2O)[C@H](O)[C@@H](O)[C@@H]1O` [Neotrehalose], with “−”; and `OC[C@H]1O[C@H](O[C@H]2[C@H](O)[C@@H](CO)OC(O)[C@@H]2O)[C@H](O)[C@@H](O)[C@@H]1O` (stereo partly shown) [Nigerose], with “−”.
Turning to `OC[C@H]1O[C@H](OC[C@H]2OC(O)(CO)[C@@H](O)[C@@H]2O)[C@H](O)[C@@H](O)[C@@H]1O` (stereo partly shown) [Palatinose], the Action result in assay [1] was “−”.
On to `OC[C@H]1O[C@H](OC[C@H]2O[C@H](O[C@H]3[C@H](O)[C@@H](O)C(O)O[C@@H]3CO)[C@H](O)[C@@H](O)[C@@H]2O)[C@H](O)[C@@H](O)[C@@H]1O` (stereo partly shown) [Panose], for which the Action result in assay [1] is recorded as “−”.
Still for that read-out and setting: then `OC[C@H]1O[C@H](O[C@H]2O[C@H](CO)[C@@H](O)[C@H](O)[C@H]2O[C@H]2O[C@H](CO)[C@@H](O)[C@H](O)[C@H]2O)[C@H](O)[C@@H](O)[C@@H]1O` [Selaginose], with “−”.
Take `OC[C@H]1O[C@@](CO)(O[C@H]2O[C@H](CO)[C@@H](O)[C@H](O)[C@H]2O)[C@@H](O)[C@@H]1O` [Sucrose]: in assay [1], the Action result was “−”.
Take `OC[C@H]1O[C@H](O[C@H]2O[C@H](CO)[C@@H](O)[C@H](O)[C@H]2O)[C@H](O)[C@@H](O)[C@@H]1O` [Trehalose]: the Action entry in assay [1] was “−”.
As for Isomaltosyl-glucoside, in assay [1], the Action result is listed as “−”.
For Maltoheptaose, in assay [1], the Action entry is reported as “±” and the “Action of the enzyme on the saccharide” value is “slightly acted on”.
Taken in the same sequence, the figures for Maltohexaose were “±” and “slightly acted on”.
Taken in the same sequence, the figures for Maltopentaose were “±” and “slightly acted on”.
The like results for Maltulose were, in that order, “±” and “slightly acted on”.
